Marks after values point to notes of the source that are not given here. Primed or numbered codes have the meaning given here. The star is where a group is joined. Ac7‑β‑Cel = heptaacetyl-β-cellobioside (peracetylated β-cellobiose), CC(=O)OC[C@H]1O[C@@H](*)[C@H](OC(C)=O)[C@@H](OC(C)=O)[C@@H]1O[C@@H]1O[C@H](COC(C)=O)[C@@H](OC(C)=O)[C@H](OC(C)=O)[C@H]1OC(C)=O; Ac7‑β‑Lac = heptaacetyl-β-lactoside (peracetylated β-lactose), CC(=O)OC[C@H]1O[C@@H](O[C@H]2[C@H](OC(C)=O)[C@@H](OC(C)=O)[C@H](*)O[C@@H]2COC(C)=O)[C@H](OC(C)=O)[C@@H](OC(C)=O)[C@H]1OC(C)=O; Ac4‑β‑Gal = tetraacetyl-β-galactoside (peracetylated β-galactose), CC(=O)OC[C@H]1O[C@@H](*)[C@H](OC(C)=O)[C@@H](OC(C)=O)[C@H]1OC(C)=O; Ac3‑α‑GalNAc″ = peracetylated alpha-N-acetylgalactosamine, CC(=O)N[C@@H]1[C@@H](OC(C)=O)[C@@H](OC(C)=O)[C@@H](COC(C)=O)O[C@@H]1*; Ac3‑α‑Rha = triacetyl-α-rhamnoside (peracetylated α-rhamnose), CC(=O)O[C@@H]1[C@@H](OC(C)=O)[C@H](C)O[C@@H](*)[C@@H]1OC(C)=O; Ac4‑β‑Glc = per-acetylated β-glucose (tetraacetyl), CC(=O)OC[C@H]1O[C@@H](*)[C@H](OC(C)=O)[C@@H](OC(C)=O)[C@@H]1OC(C)=O; Ac3‑β‑Fuc = triacetyl-β-fucoside (peracetylated β-fucose), CC(=O)O[C@@H]1[C@H](OC(C)=O)[C@H](C)O[C@H](*)[C@H]1OC(C)=O; Ac3‑β‑Xyl = triacetyl-β-xyloside (peracetylated β-xylose), CC(=O)O[C@@H]1[C@@H](OC(C)=O)[C@H](OC(C)=O)CO[C@H]1*; αGalNAc = CC(=O)N[C@@H]1[C@@H](O)[C@@H](O)[C@@H](CO)O[C@@H]1*; βGlc = OC[C@H]1O[C@@H](*)[C@H](O)[C@@H](O)[C@@H]1O; Palmitoyl = CCCCCCCCCCCCCCCC(=O)*
How the values were obtained:
[1] = tested on: Human Dermal Fibroblasts (KMST-6); assay: ECM ELISA assay: elastin secretion by human dermal fibroblasts; type: cell-based; details: 5 μM, % compared to control set at 100%, normalized to total protein; for Elastin Secretion at 48 hours: KMST-6, 48 hours; for Elastin Secretion at 72 hours: KMST-6, 72 hours
Method: (§1) KMST-6 cells (Japan Health Sciences Foundation, JCRB0433) were seeded at 7,000 cells/ml in 12-well tissue culture treated plates (Falcon, 353043) in complete media. The complete media consisted of the following: MEM/EBSS (Hyclone, SH30024.01), 10% Heat-Inactivated FBS (Gibco, 10082-147), 1% L-Glutamine (Hyclone, SH30031.01), 1% Nucleosides (800 mg/L Adenosine, 850 mg/L Guanidine, 730 mg/L Cytidine, 730 mg/L Uridine and 240 mg/L Thymidine), 1% Penicillin/Streptomycin (HyClone, SV30010), 1% Sodium Pyruvate (HyClone, SH30239.01), 1% Non-Essential Amino Acids (Hyclone, SH30238.01) and 0.04% Gentamicin (Gibco, 15710-064). Cells were grown for 2 days prior to treatments. The media was aspirated and cells were washed with 1×PBS (Fisher, SH30256.01) and treated with 5 μM (1 mL/well) glycopeptides, reference (Pal-KTTKS, CPC Scientific, 822197), and control (DMSO, Fisher, BP231-100) in serum-free media supplemented with 50 μg/mL Sodium Ascorbate (Sigma, A4034) and 80 μg/mL β-Aminopropionate Fumarate (Sigma, A3134). The treated cells were incubated at 37° C. and 5% CO2 for 48 and 72 hours. At each timepoint, media from each treatment was collected and centrifuged at 1500 RPM for 15 minutes at 4° C. The supernatant was collected and stored at −80° C. for extracellular matrix protein quantification. The following kits were used for quantification of ECM proteins: Fibronectin (Takara, MK115) and Elastin (Uscn Life Science Inc., E91337Hu). The cells were harvest and lysed with 250 μL Lysis Buffer (20 mM Tris-HCl (Sigma, T1503), 137 mM NaCl (Sigma, S9888), 2 mM EDTA (Fisher, BP118), 1% IGEPAL (Sigma, 18896), 10% Glycerol (Sigma, G5516), 100 μM PMSF (Fisher, 36978) and 10 μg/mL Leupeptin (Sigma-Aldrich, L2884). They were placed on a container of ice on a plate shaker (Lab-Line Instruments, 3595) for 30 minutes. The lysate was centrifuged at 10,000 g for 5 minutes at 4° C. The supernatant was collected and used for protein quantification (BioRad, 500-0112).
(§2) To determine effects on extracellular matrix protein secretion, 5 μM of individual glycopeptides were incubated with Human Dermal Fibroblasts (KMST-6). The control sample cells were treated with DMSO (Fisher, BP231-100). As described previously, supernatant was collected from treated cells (at two time-points, 48 and 72 hours of treatment) and stored at −80° C. for subsequent extracellular matrix protein quantification using ELISA kits (Fibronectin (Takara, MK115), Elastin (Uscn Life Science Inc., E91337Hu). For the determination of total cellular protein, treated cells were harvested and lysed. The lysate was centrifuged, the supernatant was collected and then used for protein quantification (BioRad, 500-0112). ELISA plates were read on the plate reader (Molecular Devices) at absorbance of 450 nm and SoftMax Pro software was used to compute the μg/ml values of protein of interest derived from the generated 4-parameter fit standard curve. Each μg/ml of protein secreted was normalized to total protein per well. The data was analysed by averaging out normalized values from at least three independent experiments and presenting them as a % compared to control treatment set at 100% (Table 2-5). Statistical significance was performed using One-way ANOVA (p<0.05) where “*” represents statistical significance when compared to control and “#” represents statistical significance when compared to reference. […]

[2] = tested on: Human Dermal Fibroblasts (KMST-6); assay: ECM ELISA assay: fibronectin secretion by human dermal fibroblasts; type: cell-based; details: 5 μM, % compared to control set at 100%, normalized to total protein; for Fibronectin secretion at 48 hours: KMST-6, 48 hours; for Fibronectin Secretion at 72 hours: KMST-6, 72 hours
Method: as §1, §2

Row | Substance | Elastin Secretion at 48 hours [1] [%] | Elastin Secretion at 72 hours [1] | Fibronectin secretion at 48 hours [2] [%] | Fibronectin Secretion at 72 hours [2] [%]
1 | Pal-KT(α-GalNAc)-T(α-GalNAc)KS-OH (Palmitoyl-KT(αGalNAc)T(αGalNAc)KS-OH; SMILES CCCCCCCCCCCCCCCC(=O)N[C@@H](CCCCN)C(=O)N[C@H](C(=O)N[C@H](C(=O)N[C@@H](CCCCN)C(=O)N[C@@H](CO)C(=O)O)[C@@H](C)O[C@H]1O[C@H](CO)[C@H](O)[C@H](O)[C@H]1NC(C)=O)[C@@H](C)O[C@H]1O[C@H](CO)[C@H](O)[C@H](O)[C@H]1NC(C)=O; listed as Homo sapiens) [GP001-14] | 88.00 | 98.25% | 104.8 | 94.75
2 | Pal-KT(Ac3-α-GalNAc)-T(Ac3-α-GalNAc)KS-OH (Palmitoyl-KT(Ac3‑α‑GalNAc″)T(Ac3‑α‑GalNAc″)KS-OH; SMILES CCCCCCCCCCCCCCCC(=O)N[C@@H](CCCCN)C(=O)N[C@H](C(=O)N[C@H](C(=O)N[C@@H](CCCCN)C(=O)N[C@@H](CO)C(=O)O)[C@@H](C)O[C@H]1O[C@H](COC(C)=O)[C@H](OC(C)=O)[C@H](OC(C)=O)[C@H]1NC(C)=O)[C@@H](C)O[C@H]1O[C@H](COC(C)=O)[C@H](OC(C)=O)[C@H](OC(C)=O)[C@H]1NC(C)=O; listed as Homo sapiens) [GP001-13] | 123.8 | 131.3% | 114.0 | 94.50
3 | Pal-KT(Ac3-α-Rha)TKS-OH (Palmitoyl-KT(Ac3‑α‑Rha)TKS-OH; SMILES CCCCCCCCCCCCCCCC(=O)N[C@@H](CCCCN)C(=O)N[C@H](C(=O)N[C@H](C(=O)N[C@@H](CCCCN)C(=O)N[C@@H](CO)C(=O)O)[C@@H](C)O)[C@@H](C)O[C@@H]1O[C@@H](C)[C@H](OC(C)=O)[C@@H](OC(C)=O)[C@H]1OC(C)=O; listed as Homo sapiens) [GP004-7] | 241.0 | 193.0% | – | –
4 | Pal-KTT(Ac4-β-Glc)KS-OH (Palmitoyl-KTT(Ac4‑β‑Glc)KS-OH; SMILES CCCCCCCCCCCCCCCC(=O)N[C@@H](CCCCN)C(=O)N[C@H](C(=O)N[C@H](C(=O)N[C@@H](CCCCN)C(=O)N[C@@H](CO)C(=O)O)[C@@H](C)O[C@@H]1O[C@H](COC(C)=O)[C@@H](OC(C)=O)[C@H](OC(C)=O)[C@H]1OC(C)=O)[C@@H](C)O; listed as Homo sapiens) [GP001-7] | – | – | 101.3 | 109.4
5 | Pal-KN(β-Glc)TKS-OH (Palmitoyl-KN(βGlc)TKS-OH; listed as Homo sapiens) [GP003-6] | 170.3 | 128.8% | 140.2 | 119.7
6 | Pal-KTTKS(Ac7-β-Cel)-OH (Palmitoyl-KTTKS(Ac7‑β‑Cel)-OH; SMILES CCCCCCCCCCCCCCCC(=O)N[C@@H](CCCCN)C(=O)N[C@H](C(=O)N[C@H](C(=O)N[C@@H](CCCCN)C(=O)N[C@@H](CO[C@@H]1O[C@H](COC(C)=O)[C@@H](O[C@@H]2O[C@H](COC(C)=O)[C@@H](OC(C)=O)[C@H](OC(C)=O)[C@H]2OC(C)=O)[C@H](OC(C)=O)[C@H]1OC(C)=O)C(=O)O)[C@@H](C)O)[C@@H](C)O; listed as Homo sapiens) [GP004-10] | 211.3 | 187.0% | – | –
7 | Pal-KTTKS(Ac3-β-Fuc)-OH (Palmitoyl-KTTKS(Ac3‑β‑Fuc)-OH; SMILES CCCCCCCCCCCCCCCC(=O)N[C@@H](CCCCN)C(=O)N[C@H](C(=O)N[C@H](C(=O)N[C@@H](CCCCN)C(=O)N[C@@H](CO[C@H]1O[C@@H](C)[C@@H](OC(C)=O)[C@@H](OC(C)=O)[C@@H]1OC(C)=O)C(=O)O)[C@@H](C)O)[C@@H](C)O; listed as Homo sapiens) [GP004-12] | 151.4 | 191.8% | – | –
8 | Pal-KT(Ac4-β-Gal)TKS-OH (Palmitoyl-KT(Ac4‑β‑Gal)TKS-OH; SMILES CCCCCCCCCCCCCCCC(=O)N[C@@H](CCCCN)C(=O)N[C@H](C(=O)N[C@H](C(=O)N[C@@H](CCCCN)C(=O)N[C@@H](CO)C(=O)O)[C@@H](C)O)[C@@H](C)O[C@@H]1O[C@H](COC(C)=O)[C@H](OC(C)=O)[C@H](OC(C)=O)[C@H]1OC(C)=O; listed as Homo sapiens) [GP004-1] | 215.3 | 202.0% | – | –
9 | Pal-KTT(Ac4-β-Gal)KS-OH (Palmitoyl-KTT(Ac4‑β‑Gal)KS-OH; SMILES CCCCCCCCCCCCCCCC(=O)N[C@@H](CCCCN)C(=O)N[C@H](C(=O)N[C@H](C(=O)N[C@@H](CCCCN)C(=O)N[C@@H](CO)C(=O)O)[C@@H](C)O[C@@H]1O[C@H](COC(C)=O)[C@H](OC(C)=O)[C@H](OC(C)=O)[C@H]1OC(C)=O)[C@@H](C)O; listed as Homo sapiens) [GP004-2] | 186.5 | 138.3% | – | –
10 | Pal-KT(Ac7-β-Cel)TKS-OH (Palmitoyl-KT(Ac7‑β‑Cel)TKS-OH; SMILES CCCCCCCCCCCCCCCC(=O)N[C@@H](CCCCN)C(=O)N[C@H](C(=O)N[C@H](C(=O)N[C@@H](CCCCN)C(=O)N[C@@H](CO)C(=O)O)[C@@H](C)O)[C@@H](C)O[C@@H]1O[C@H](COC(C)=O)[C@@H](O[C@@H]2O[C@H](COC(C)=O)[C@@H](OC(C)=O)[C@H](OC(C)=O)[C@H]2OC(C)=O)[C@H](OC(C)=O)[C@H]1OC(C)=O; listed as Homo sapiens) [GP004-9] | 199.3 | 254.6* % | – | –
11 | Pal-KTTKS(Ac3-β-Xyl)-OH (Palmitoyl-KTTKS(Ac3‑β‑Xyl)-OH; SMILES CCCCCCCCCCCCCCCC(=O)N[C@@H](CCCCN)C(=O)N[C@H](C(=O)N[C@H](C(=O)N[C@@H](CCCCN)C(=O)N[C@@H](CO[C@@H]1OC[C@@H](OC(C)=O)[C@H](OC(C)=O)[C@H]1OC(C)=O)C(=O)O)[C@@H](C)O)[C@@H](C)O; listed as Homo sapiens) [GP004-11] | 178.8 | 121.3% | – | –
12 | Pal-KT(Ac7-β-Lac)TKS-OH (Palmitoyl-KT(Ac7‑β‑Lac)TKS-OH; SMILES CCCCCCCCCCCCCCCC(=O)N[C@@H](CCCCN)C(=O)N[C@H](C(=O)N[C@H](C(=O)N[C@@H](CCCCN)C(=O)N[C@@H](CO)C(=O)O)[C@@H](C)O)[C@@H](C)O[C@@H]1O[C@H](COC(C)=O)[C@@H](O[C@@H]2O[C@H](COC(C)=O)[C@H](OC(C)=O)[C@H](OC(C)=O)[C@H]2OC(C)=O)[C@H](OC(C)=O)[C@H]1OC(C)=O; listed as Homo sapiens) [GP004-5] | 195.3 | 209.5% | – | –
13 | Pal-KTTKS(Ac7-β-Lac)-OH (Palmitoyl-KTTKS(Ac7‑β‑Lac)-OH; SMILES CCCCCCCCCCCCCCCC(=O)N[C@@H](CCCCN)C(=O)N[C@H](C(=O)N[C@H](C(=O)N[C@@H](CCCCN)C(=O)N[C@@H](CO[C@@H]1O[C@H](COC(C)=O)[C@@H](O[C@@H]2O[C@H](COC(C)=O)[C@H](OC(C)=O)[C@H](OC(C)=O)[C@H]2OC(C)=O)[C@H](OC(C)=O)[C@H]1OC(C)=O)C(=O)O)[C@@H](C)O)[C@@H](C)O; listed as Homo sapiens) [GP004-6] | 218.6 | 170.0% | – | –
14 | Pal-KTTKS(Ac3-α-Rha)-OH (Palmitoyl-KTTKS(Ac3‑α‑Rha)-OH; SMILES CCCCCCCCCCCCCCCC(=O)N[C@@H](CCCCN)C(=O)N[C@H](C(=O)N[C@H](C(=O)N[C@@H](CCCCN)C(=O)N[C@@H](CO[C@@H]1O[C@@H](C)[C@H](OC(C)=O)[C@@H](OC(C)=O)[C@H]1OC(C)=O)C(=O)O)[C@@H](C)O)[C@@H](C)O; listed as Homo sapiens) [GP004-8] | 166.8 | 169.3% | – | –
